For data set [1] the following is noted: Liquid; for mass density: 101.33 kPa, Pycnometric method; for vapor or sublimation pressure: Isoteniscope.
Data set [2] can be described thus: refractive index (Na D-line) (dimensionless). The conditions noted are these: 298.15 K; 101.33 kPa; Liquid; Standard Abbe refractometry.

± gives the expanded uncertainty stated by the source.

The text below walks through data of the NIST ThermoML archive (doi:10.1016/j.jct.2009.04.006).

`CC(Cl)(Cl)Cl` [1,1,1-trichloroethane]: the mass density in data set [1] (298.15 K) is recorded as 1328.7 ± 0.6 kg/m3. Moreover, the figures for the “vapor or sublimation pressure” value in data set [1] (298.15 K), in data set [1] (308.15 K) and in data set [1] (318.15 K) were 16.64 ± 0.19 kPa, 25.85 ± 0.22 kPa and 37.61 ± 0.25 kPa, respectively. Besides, the refractive index in data set [2] is on record as 1.4354 ± 0.0004.
Regarding `CCCCCl` [1-chlorobutane], the mass density in data set [1] (298.15 K) came out at 880.9 ± 0.4 kg/m3. Further, the entries for the “vapor or sublimation pressure” value in data set [1] (298.15 K), in data set [1] (308.15 K) and in data set [1] (318.15 K) were 13.72 ± 0.15 kPa, 20.66 ± 0.19 kPa and 31.46 ± 0.23 kPa, respectively. Also, the refractive index in data set [2] is on record as 1.3991 ± 0.0004.
For `O=C1CCCCC1` [cyclohexanone], in that order: 943 ± 0.4 kg/m3, 0.64 ± 0.05 kPa, 1.16 ± 0.06 kPa, 1.92 ± 0.06 kPa and 1.4482 ± 0.0004.

Broadly, the mass density is the mass of a sample divided by its volume. For orientation: vapor or sublimation pressure means the equilibrium pressure above the liquid or solid. For orientation: refractive index means the speed of light in vacuum divided by its phase velocity in the sample.
